Measurements: paper PMC3090393, “New Noncovalent Inhibitors of Penicillin-Binding Proteins from Penicillin-Resistant Bacteria” (PLoS ONE, 2011)

Assays:
[1] = molecular target: PBP5fm (Enterococcus faecium, UniProt Q47759); assay: PBP5fm enzymatic inhibition assay (fluorescein-labeled ampicillin, residual penicillin binding activity); type: biochemical, Enterococcus faecium D63r
Experimental: (§1) PBP2a from Staphylococcus aureus ATCC 43300 and PBP5fm from Enterococcus faecium D63r were overproduced and purified as described previously, [18].
(§2) Each of the purified PBPs (2.5 µM) were first incubated with 1 mM potential inhibitor in 100 mM phosphate buffer, 0.01% Triton X-100[19], pH 7, for 4 h at 30°C. Then, 25 µM fluorescein-labeled ampicillin[20] was added to detect the residual penicillin binding activity (RA). The samples were further incubated for 30 min at 37°C in a total volume of 20 µL. Denaturation buffer was added (0.1 M Tris/HCl, pH 6.8, containing 25% glycerol, 2% SDS, 20% β-mercaptoethanol and 0.02% bromophenol blue) and the samples were heated to 100°C for 1 min. The samples were then loaded onto a 10% SDS-acrilamide gel (10×7 cm) and electrophoresis was performed for 45 min at 180 V (12 mA). Detection and quantification of the RAs were with Molecular Image FX equipment and Quantity One software (BioRad, Hercules, CA, USA). Three independent experiments were carried out for each inhibitor.

[2] = molecular target: PBP2x 5204 (Streptococcus pneumoniae, UniProt P59676); assay: PBP2x 5204 enzymatic inhibition assay (S2d hydrolysis, DTNB); type: biochemical, Streptococcus pneumoniae strain 5204; conditions: residual activity of the enzyme at 1 mM inhibitor; 240 min
Experimental: PBP2x-5204 from Streptococcus pneumonia and N-benzoyl-D-alanyl-thioglycolate S2d[21], [22] were prepared as previously described. All assays with PBP2x 5204 were carried out in 96-well microtiter plates (Brand, Wertheim, Germany). PBP2x 5204 (0.6 µM) was incubated in the presence of the potential inhibitors in 10 mM sodium phosphate buffer (pH 7.0) containing 70 mM D-alanine and 0.01 mg/mL BSA, for 4 h at 25°C. This preincubation was used to also detect slow binding inhibitors. After the preincubation, the RA of PBP2x 5204 was determined. The initial rate of hydrolysis of 1 mM S2d in the presence of 1 mM DTNB was determined by monitoring the increase in absorbance at 412 nm (DTNB: ε[Δ ε] = […]) using a microplate absorbance reader (Power Wave X, Biotek Instruments, Winooski, U.S.A.). The rate of spontaneous hydrolysis of S2d in the presence of the potential inhibitors was also determined in the absence of PBP2x 5204. All of the assays were carried out in triplicate. The determination of the RA of PBP2x 5204 in the absence of inhibitors was carried out six times on each plate. A test compound was considered as an inhibitor if the RA was <80%. In this case, to reveal false positives, the assays were also carried out under the same conditions in the presence of 0.01% Triton X-100. As described in the literature, promiscuous inhibitors (false positives) are slow binding, noncompetitive inhibitors. To avoid detailed kinetic investigations, it is possible to identify such compounds by carrying out the assays in the presence of Triton X-100[14], [19]. Promiscuous inhibitors show no inhibition in the presence of Triton X-100. The IC50 values in the presence of Triton X-100 were determined if the RAs were <50%. (RA: ∼50%, IC50∼c, c: concentration of compound in the assay; RA >50%, IC50 > c). The RA was measured over a range of concentrations, from which the IC50 values were determined by non-linear regression analysis, using Sigma Plot (Systat software) and fitting the data to the equation y = y0+(a×b)/(b+x)[23].

[3] = molecular target: T1, PBP2a (Staphylococcus aureus, UniProt P07944); assay: PBP2a enzymatic inhibition assay (fluorescein-labeled ampicillin, residual penicillin binding activity); type: biochemical, Staphylococcus aureus ATCC 43300; conditions: 4 h; residual activity of the enzyme at 1 mM inhibitor; 0.01% Triton X-100; mean of three experiments; read-out: PBP2a RA [%]
T1 construct: made in house
Experimental: as §1, §2

[4] = system: panel of five Gram-negative and 15 Gram-positive bacterial strains; assay: In-vitro antibacterial activity (MIC), whole panel; type: cell-based; conditions: summary over the whole panel; read-out: MICs for all of the bacterial strains under investigation
Experimental: (§3) Determination of the antibacterial activities was carried out on microtiter plates, in 200 µL (final volume) of Müeller-Hinton Broth (MHB), following EUCAST (European Committee on Antimicrobial Susceptibility testing)/CLSI (Clinical and Laboratory Standard Institute) recommended procedures, [25]. The compounds were solubilized in MHB, just before use. Inocula were prepared for each strain by resuspending isolated colonies from 18 h cultured plates. Equivalents of 0.5 Mac Farland turbidity standards (approximately 1×10^8 CFU mL^−1) were prepared in saline solution ([…]) and then diluted 200-fold in MBH.

[5] = system: Enterococcus hirae ATCC 8790; assay: In-vitro antibacterial activity (MIC, broth microdilution); type: cell-based; conditions: ATCC8790
Experimental: as §3

[6] = system: Listeria monocytogenes ATCC 14780; assay: as above; type: cell-based; conditions: ATCC14780
Experimental: as §3

[7] = system: Micrococcus luteus ATCC 9341; assay: as above; type: cell-based; conditions: ATCC9341
Experimental: as §3

[8] = system: Enterococcus faecalis ATCC 7937; assay: as above; type: cell-based; conditions: ATCC7937
Experimental: as §3

[9] = system: Bacillus subtilis ATCC 6633; assay: as above; type: cell-based; conditions: ATCC6633
Experimental: as §3

[10] = system: Streptococcus pneumoniae ATCC 33400; assay: as above; type: cell-based; conditions: ATCC33400
Experimental: as §3

[11] = system: Staphylococcus aureus mp 1 (inducible MRSA); assay: as above; type: cell-based
Experimental: as §3

[12] = system: Pseudomonas aeruginosa ATCC 27853; assay: as above; type: cell-based; conditions: ATCC27853
Experimental: as §3

[13] = system: Staphylococcus aureus ATCC 25923; assay: as above; type: cell-based; conditions: ATCC25923
Experimental: as §3

[14] = system: Streptococcus pneumoniae D39; assay: as above; type: cell-based
Experimental: as §3

[15] = system: Escherichia coli ATCC 8739; assay: as above; type: cell-based; conditions: ATCC8739
Experimental: as §3

[16] = system: Klebsiella pneumoniae ATCC 13883; assay: as above; type: cell-based; conditions: ATCC13883
Experimental: as §3

[17] = system: Staphylococcus epidermidis ATCC 12228; assay: as above; type: cell-based; conditions: ATCC12228
Experimental: as §3

[18] = system: Listeria innocua ATCC 33090; assay: as above; type: cell-based; conditions: ATCC33090
Experimental: as §3

[19] = system: Streptococcus pneumoniae ATCC 49619; assay: as above; type: cell-based; conditions: ATCC49619
Experimental: as §3

[20] = system: Proteus mirabilis ATCC 29936; assay: as above; type: cell-based; conditions: ATCC29936
Experimental: as §3

[21] = system: Enterococcus faecium ATCC 19434; assay: as above; type: cell-based; conditions: ATCC19434
Experimental: as §3

[22] = system: Enterococcus faecalis ATCC 29212; assay: as above; type: cell-based; conditions: ATCC29212
Experimental: as §3

[23] = system: Citrobacter freundii ATCC 8090; assay: as above; type: cell-based; conditions: ATCC8090
Experimental: as §3

[24] = system: Staphylococcus aureus ATCC 43300 (MRSA); assay: as above; type: cell-based
Experimental: as §3

Chain of PBP5fm (Q47759 entry or part of it): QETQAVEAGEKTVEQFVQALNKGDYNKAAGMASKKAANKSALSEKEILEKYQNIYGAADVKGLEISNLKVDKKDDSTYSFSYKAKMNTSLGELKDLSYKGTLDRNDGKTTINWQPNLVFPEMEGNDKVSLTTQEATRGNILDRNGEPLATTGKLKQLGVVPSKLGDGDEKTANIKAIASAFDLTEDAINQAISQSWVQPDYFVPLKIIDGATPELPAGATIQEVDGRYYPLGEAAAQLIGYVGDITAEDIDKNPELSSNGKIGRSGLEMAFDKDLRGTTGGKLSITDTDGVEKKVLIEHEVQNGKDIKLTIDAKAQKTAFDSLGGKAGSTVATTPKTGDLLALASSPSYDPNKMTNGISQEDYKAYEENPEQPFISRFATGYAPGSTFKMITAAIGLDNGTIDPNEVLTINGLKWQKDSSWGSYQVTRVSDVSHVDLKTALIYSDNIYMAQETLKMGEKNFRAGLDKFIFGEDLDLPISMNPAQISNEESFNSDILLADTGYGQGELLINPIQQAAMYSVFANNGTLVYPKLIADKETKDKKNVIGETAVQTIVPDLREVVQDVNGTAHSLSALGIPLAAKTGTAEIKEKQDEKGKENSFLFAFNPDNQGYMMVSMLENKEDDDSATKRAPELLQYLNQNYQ
T1 sequence (P07944 whole entry): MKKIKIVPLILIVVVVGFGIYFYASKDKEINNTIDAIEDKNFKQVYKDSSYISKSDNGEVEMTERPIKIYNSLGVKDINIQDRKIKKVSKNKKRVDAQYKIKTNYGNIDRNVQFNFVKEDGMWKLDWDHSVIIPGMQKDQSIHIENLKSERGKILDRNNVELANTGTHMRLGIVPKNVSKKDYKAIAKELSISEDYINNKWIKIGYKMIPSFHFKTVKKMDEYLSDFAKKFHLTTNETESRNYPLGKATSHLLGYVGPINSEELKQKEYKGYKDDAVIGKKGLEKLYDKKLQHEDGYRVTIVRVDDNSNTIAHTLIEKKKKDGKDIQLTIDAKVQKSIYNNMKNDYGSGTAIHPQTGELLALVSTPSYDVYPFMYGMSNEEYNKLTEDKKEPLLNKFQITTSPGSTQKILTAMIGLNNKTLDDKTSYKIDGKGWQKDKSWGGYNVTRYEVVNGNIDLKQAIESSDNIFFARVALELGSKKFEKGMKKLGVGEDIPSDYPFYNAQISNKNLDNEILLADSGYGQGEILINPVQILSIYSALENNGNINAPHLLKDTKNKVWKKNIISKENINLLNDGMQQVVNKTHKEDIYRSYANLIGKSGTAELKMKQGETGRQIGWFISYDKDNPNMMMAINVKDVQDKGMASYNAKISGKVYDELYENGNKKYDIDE
Chain of PBP2x 5204 (P59676 49-750): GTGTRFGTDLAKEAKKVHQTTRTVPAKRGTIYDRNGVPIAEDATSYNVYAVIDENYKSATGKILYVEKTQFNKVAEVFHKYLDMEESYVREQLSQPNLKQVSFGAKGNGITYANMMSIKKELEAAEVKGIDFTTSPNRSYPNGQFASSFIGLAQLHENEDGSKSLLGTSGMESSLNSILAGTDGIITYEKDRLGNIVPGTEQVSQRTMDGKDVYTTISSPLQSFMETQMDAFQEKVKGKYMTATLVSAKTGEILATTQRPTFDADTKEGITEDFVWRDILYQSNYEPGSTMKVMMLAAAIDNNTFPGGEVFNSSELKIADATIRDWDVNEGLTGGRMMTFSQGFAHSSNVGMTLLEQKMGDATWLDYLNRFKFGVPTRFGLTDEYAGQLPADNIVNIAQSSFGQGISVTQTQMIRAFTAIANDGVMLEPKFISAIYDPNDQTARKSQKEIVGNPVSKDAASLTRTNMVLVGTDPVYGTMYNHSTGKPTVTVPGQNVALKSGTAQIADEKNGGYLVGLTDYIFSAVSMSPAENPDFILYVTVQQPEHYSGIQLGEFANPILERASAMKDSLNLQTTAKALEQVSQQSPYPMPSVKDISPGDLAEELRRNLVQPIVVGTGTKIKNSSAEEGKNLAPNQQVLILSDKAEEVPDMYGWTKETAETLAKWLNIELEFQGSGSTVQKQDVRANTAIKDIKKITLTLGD

Question: How did the activity at 1000 µM ([1]; 4 h, residual activity of the enzyme at 1 mM inhibitor, 0.01% Triton X-100, read-out: PBP5fm RA [%]) turn out when NC(=O)c1cccc(NS(=O)(=O)c2cccc3cccnc23)c1 [compound 2, 3-(Quinoline-8-sulfonamido)benzamide] was run?
Answer: The activity at 1000 µM was 39%.

Question: And the IC50 ([1]; in the presence of 0.01% Triton X-100)?
Answer: Its IC50 is 930 µM.

Question: And the “PBP2x5204 RA [%]” value [2]?
Answer: Its value is 123%.

Question: What about the remaining activity at 1000 µM [3] of the same compound?
Answer: The remaining activity at 1000 µM was 58%.

Question: What about the MIC [4] of the same compound?
Answer: The MIC was > 512 µg/mL.

Question: What about the MIC [5] of the same compound?
Answer: The MIC was > 512 µg/mL.

Question: And the MIC [6]?
Answer: The MIC was > 512 µg/mL.

Question: And the MIC [7]?
Answer: The MIC was > 512 µg/mL.

Question: What about the MIC [8] of the same compound?
Answer: Its MIC is > 512 µg/mL.

Question: And the MIC [9]?
Answer: Its MIC is > 512 µg/mL.

Question: And the MIC [10]?
Answer: The MIC was > 512 µg/mL.

Question: What about the MIC [11] of the same compound?
Answer: Its MIC is > 512 µg/mL.

Question: What about the MIC [12] of the same compound?
Answer: Its MIC is > 512 µg/mL.

Question: What about the MIC [13] of the same compound?
Answer: Its MIC is > 512 µg/mL.

Question: What about the MIC [14] of the same compound?
Answer: The MIC was > 512 µg/mL.

Question: What about the MIC [15] of the same compound?
Answer: Its MIC is > 512 µg/mL.

Question: What about the MIC [16] of the same compound?
Answer: The MIC was > 512 µg/mL.

Question: And the MIC [17]?
Answer: Its MIC is > 512 µg/mL.

Question: What about the MIC [18] of the same compound?
Answer: The MIC was > 512 µg/mL.

Question: What about the MIC [19] of the same compound?
Answer: Its MIC is > 512 µg/mL.

Question: And the MIC [20]?
Answer: Its MIC is > 512 µg/mL.

Question: What about the MIC [21] of the same compound?
Answer: Its MIC is > 512 µg/mL.

Question: And the MIC [22]?
Answer: The MIC was > 512 µg/mL.

Question: What about the MIC [23] of the same compound?
Answer: Its MIC is > 512 µg/mL.

Question: What about the MIC [24] of the same compound?
Answer: The MIC was > 512 µg/mL.
